According to ChEMBL document CHEMBL3112504, “Design, structural and biological characterization of a VEGF inhibitor β-hairpin-constrained peptide” (2014):
Calls of active or inactive are those of the source. The calls are words filed in the database; no cut-off is given here. Peptide text beside a SMILES is read from it.

Experiments:
[1] = test system: HUVEC; experiment: Inhibition of VEGFR in HUVEC assessed as reduction in Akt phosphorylation at 25 to 100 ng/ml after 15 mins by Western blotting analysis; assay type: cell-based; details: Homo sapiens
[2] = test system: HUVEC; experiment: Inhibition of VEGFR in HUVEC assessed as reduction in ERK1/2 phosphorylation at 25 to 100 ng/ml after 15 mins by Western blotting analysis; assay type: cell-based; details: Homo sapiens
[3] = test system: HUVEC; experiment: Induction of proapoptosis in HUVEC assessed as increase in caspase 3 activity at 25 to 100 ng/ml after 8 hrs by fluorimetric assay; assay type: functional, cell-based; details: Homo sapiens
[4] = test system: HUVEC; experiment: Induction of proapoptosis in VEGF-treated HUVEC assessed as increase in caspase 3 activity after 8 hrs by fluorimetric assay; assay type: functional, cell-based; details: Homo sapiens
[5] = test system: HUVEC; experiment: Inhibition of VEGF-induced HUVEC proliferation at 50 to 100 […] after 48 hrs by CyQuant cell proliferation assay; assay type: functional, Homo sapiens
[6] = test system: HUVEC; experiment: Induction of proapoptosis in VEGF-treated HUVEC assessed as increase in caspase 3 activity at 25 to 100 ng/ml after 8 hrs by fluorimetric assay; assay type: functional, cell-based; details: Homo sapiens
[7] = test system: HUVEC; experiment: Inhibition of VEGFR in HUVEC assessed as reduction in VEGF-induced ERK1/2 phosphorylation at 25 to 100 ng/ml after 15 mins by Western blotting analysis; assay type: cell-based; details: Homo sapiens
[8] = test system: HUVEC; experiment: Inhibition of VEGFR in HUVEC assessed as reduction in VEGF-induced Akt phosphorylation at 25 to 100 ng/ml after 15 mins by Western blotting analysis; assay type: cell-based; details: Homo sapiens
[9] = test system: HUVEC; experiment: Inhibition of VEGFR in HUVEC assessed as reduction in VEGF-induced Akt phosphorylation at 100 ng/ml after 15 mins by Western blotting analysis; assay type: cell-based; details: Homo sapiens
[10] = test system: HUVEC; experiment: Inhibition of VEGFR in HUVEC assessed as reduction in VEGF-induced ERK1/2 phosphorylation at 100 ng/ml after 15 mins by Western blotting analysis; assay type: cell-based; details: Homo sapiens
[11] = test system: HUVEC; experiment: Induction of proapoptosis in VEGF-treated HUVEC assessed as increase in caspase 3 activity at 100 ng/ml after 8 hrs by fluorimetric assay; assay type: functional, cell-based; details: Homo sapiens

CC[C@H](C)[C@H](NC(=O)[C@H](Cc1c[nH]c2ccccc12)NC(=O)[C@H](CC(C)C)NC(=O)[C@H](CS)NC(=O)[C@H](CCC(N)=O)NC(=O)[C@@H](N)CCCCN)C(=O)N[C@@H](CCCNC(=N)N)C(=O)N[C@@H](CO)C(=O)NCC(=O)N[C@@H](CC(=O)O)C(=O)N[C@@H](CCCNC(=N)N)C(=O)N1CCC[C@H]1C(=O)N[C@@H](Cc1c[nH]c2ccccc12)C(=O)N[C@@H](Cc1ccc(O)cc1)C(=O)N[C@@H](CS)C(=O)N[C@H](C(=O)N[C@@H](CO)C(=O)O)[C@@H](C)O (H-KQCLWIRSGDRPWYCTS-OH)
inhibition [1]: inactive
inhibition [2]: inactive
Activity [3]: inactive
Activity [4]: Dose-dependent effect
inhibition (INH) [5]: >95%
Activity [6]: Active
inhibition [7]: Active
inhibition [8]: Active

H-KPDRWSQWRSTYSLSIG-OH
inhibition [9]: inactive
inhibition [10]: inactive
Activity [11]: inactive
inhibition ([5]; Homo sapiens): inactive
